Experiments:
[1] = tested on: IL6; assay: IL6 real-time PCR and ELISA in MDA-MB-468 cells; assay type: cell-based, human; conditions: for gene expression of IL6 (real-time PCR): 20 nM, 5 hrs; for IL6 protein in supernatants (ELISA): EGF stimulation, 48 hrs
Method: FIG. 10 illustrates an embodiment of the present invention and illustrates SIM-1 and SIM-2 inhibit expressions of IL6, RANTES, and other STAT3-dependent tumor promoting genes and proteins. (A) A gene array of STAT3 dependent 66 genes (listed in Table 1) was performed in mRNA samples of MDA-MB-468 cells. Realtime PCR plate coated with 66 primer sets of STAT3-dependent genes was run for four conditions including control, EGF (25 ng/mL), EGF+SIM-1 (10 nM) and EGF+SIM-2 (10 nM). The resultant Ct value was normalized with four different housekeeping genes, and then summarized with a heatmap analyses drawn in Morpheus server of Broad Institute. […] (C) The cloning of STAT3 response element of IL6 promoter upstream of GFP reporter was performed by GeneCopoea genome editing service (Rockville, MD). The bit score map and sequence of consensus STAT3 response element or SEQ ID NO: 2 was shown below. EGFP reporter assay was performed in EGF-induced (20 ng/mL) MDA-MB-468 after treatments of increasing doses of (D) SIM-1 and (E) SIM-2 for 5 hrs. Briefly, MDA-MB-468 cells were transfected with the plasmid for 24 hrs using Lipofectamine transfection strategy followed by the treatment with EGF (20 ng/mL) alone and together with increasing doses SIM-1 and SIM-2 for additional 5 hrs. After that live cells were recorded at Ex:Em=485/535 nm wavelength for GFP activity. (F) The scrambled STAT3 response element in IL6 promoter or SEQ ID NO: 3 was also synthesized partnering with GeneCopoea. One-way ANOVA (treatment as effector) was adopted to test the significance between groups at **p<0.01, #p<0.005, and *p<0.05. (G) The GFP reporter activity was measured where the scrambled gene was cloned upstream of eGFP reporter. Results are mean±SD of three different experiments Ns=no significance. (H) Realtime PCR analyses of IL6 was performed in MDA-MB-468 cells maintained under control, EGF (25 ng/mL), EGF+SIM-1(20 nM), and EGF+SIM-2 (20 nM) conditions for 5 hrs. (I) ELISA analysis of IL6 was performed after 48 hrs in MDA-MB-468 cells kept under similar treatment conditions. (J) Realtime PCR (5 hrs post-treatment) and (K) ELISA analyses of RANTES (48 hrs post treatment) were performed under similar condition. Results are mean±SD of three different experiments. One-way ANOVA (treatment as effector) was adopted to test the significance between groups at ***p<0.001, **p<0.01, and *p<0.05.
ELISA assay. IL6 (BD OptEIA™; Cat #555220) and RANTES (Thermo; Cat #EHRNTS) ELISA was performed as per manufacturer's protocol. […]
Once the transcriptional regulation of STAT3-dependent genes was confirmed, the quantification of IL6 was performed. […]

[2] = Health vitals and open-field test in PDX mice; assay type: in vivo, mouse; conditions: end of study, 2 mg/Kg Bwt i.p.
Method: FIG. 12 illustrates an embodiment of the present invention and illustrates SIM-1 and SIM-2 arrest the growth of human TNBC tumor in patient-derived xenograft mouse model. TM00096 tumor (origin of invasive ductal carcinoma isolated from a person) was seeded in the flank of 6-week-old female SCID mice by Jackson Laboratory and then shipped to our research facility. Once the tumor reached ˜4 mm in size (˜30 mm^3 in volume), n=6 mice/group were treated by vehicle (5% DMSO), SIM-1 and SIM-2 (2 mg/Kg Bwt mixed with 5% DMSO) via i.p. for 2 weeks in every alternate day. The tumor size was monitored accordingly during the treatment and two more weeks after the last dose to evaluate the recurrence. […] (B) Tumor size was measured every alternate day for 4 weeks by a digital caliper and then the volume was calculated using the formula 0.5*Length*Width^2. […] (D) Body weight was recorded during the course of the study to monitor the adverse metabolic outcome due to the drug administration. (E) The heart rate was monitored at 0-, 7-, 14-, and 28-days post SIM-1 and SIM-2 treatments by MouseStat Jr console (Kent Scientific) as per the manufacturer's instruction. (F) At the end of the study, the gross motor performance was recorded for n=6 (i) vehicle, (ii) SIM-1-, and (iii) SIM-2-treated mice. […]

SMILES | gene expression of IL6 (real-time PCR) [1] | IL6 protein in supernatants (ELISA) [1] | open-field test: gross movement, total distance traveled, average speed [2]
O=C(O)CCC(=O)NCc1csc2ccc(Cl)cc12 [SIM-1, 4-[(5-chloro-1-benzothiophen-3-yl)methylamino]-4-oxobutanoic acid] | strongly inhibited | suppression of IL6 | did not show any adverse outcome
CCOC(=O)c1c(NC(C)=O)sc2c(Cl)c(/C=N/O)ccc12 [SIM-2, ethyl 2-acetamido-7-chloro-6-(hydroxyiminomethyl)-1-benzothiophene-3-carboxylate] | strongly inhibited | suppression of IL6 | did not show any adverse outcome

Reference: patent US20250255847A1, “[…]s: Novel Drugs for Triple Negative Breast Cancer” (SIMMARON RSEARCH INC, priority 2024, published 2025)
